The target of one assay is NK1 (Homo sapiens, UniProt P25103). As to the kind of experiment: Signal transduction (ST), intracellular Ca++ (FLIPR), NK1 antagonistic activity. Format: cell-based. As to conditions: read-out: pIC50 NK1 (converted). How it is done:
(§1) This test evaluates in vitro functional NK1 antagonistic activity. For the measurements of intracellular Ca^++ concentrations the cells were grown on 96-well (black wall/transparent bottom) plates from Costar for 2 days until they reached confluence. The cells were loaded with 2 μM Fluo3 in DMEM containing 0.1% BSA and 2.5 mM probenecid for 1 h at 37° C. They were washed 3× with a Krebs buffer (140 mM NaCl, 1 mM MgCl2×6H2O, 5 mM KCl, 10 mM glucose, 5 mM HEPES; 1.25 mM CaCl2; pH 7.4) containing 2.5 mM probenecid and 0.1% BSA (Ca^++-buffer). The cells were preincubated with a concentration range of antagonists for 20 min at RT and Ca^++-signals after addition of the agonists were measured in a Fluorescence Image Plate Reader (FLIPR from Molecular Devices, Crawley, England). The peak of the Ca^++-transient was considered as the relevant signal and the mean values of corresponding wells were analysed as described below.
The sigmoidal dose response curves were analysed by computerised curve-fitting, using the GraphPad Program. […] For antagonist responses the IC50-value was calculated using non-linear regression. […]

The target of the next assay is T1, NK3 (Homo sapiens, UniProt P29371).
T1 sequence (P29371 1-465): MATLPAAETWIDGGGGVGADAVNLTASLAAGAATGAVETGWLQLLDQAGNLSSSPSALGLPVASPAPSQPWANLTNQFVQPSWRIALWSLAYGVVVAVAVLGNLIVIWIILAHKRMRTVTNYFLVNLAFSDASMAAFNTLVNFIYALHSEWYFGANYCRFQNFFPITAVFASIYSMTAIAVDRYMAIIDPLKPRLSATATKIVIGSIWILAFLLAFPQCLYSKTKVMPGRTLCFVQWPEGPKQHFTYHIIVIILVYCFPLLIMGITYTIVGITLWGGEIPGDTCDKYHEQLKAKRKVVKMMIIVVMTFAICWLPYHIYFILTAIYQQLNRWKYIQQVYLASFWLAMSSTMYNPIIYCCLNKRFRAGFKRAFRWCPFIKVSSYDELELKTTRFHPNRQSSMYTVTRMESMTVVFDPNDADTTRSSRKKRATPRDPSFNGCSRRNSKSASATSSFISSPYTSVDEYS
Description: Signal transduction (ST), intracellular Ca++ (FLIPR), NK3. It counts as cell-based. Conditions: read-out: pIC50 NK3 (converted). As to the method: [The procedure below names another target; the source lists this target under the same test.] as §1
The sigmoidal dose response curves were analysed by computerised curve-fitting, using the GraphPad Program. […] For antagonist responses the IC50-value was calculated using non-linear regression.
The last columns indicates—without being limited therefore—for which the compounds might be most suitable. Of course, since for some neurokinin receptors no data was determined, it is obvious that these compounds might be attributed to another suitable use.

Each structure is given as a SMILES string.

Sequence of NK1 (P25103 whole entry): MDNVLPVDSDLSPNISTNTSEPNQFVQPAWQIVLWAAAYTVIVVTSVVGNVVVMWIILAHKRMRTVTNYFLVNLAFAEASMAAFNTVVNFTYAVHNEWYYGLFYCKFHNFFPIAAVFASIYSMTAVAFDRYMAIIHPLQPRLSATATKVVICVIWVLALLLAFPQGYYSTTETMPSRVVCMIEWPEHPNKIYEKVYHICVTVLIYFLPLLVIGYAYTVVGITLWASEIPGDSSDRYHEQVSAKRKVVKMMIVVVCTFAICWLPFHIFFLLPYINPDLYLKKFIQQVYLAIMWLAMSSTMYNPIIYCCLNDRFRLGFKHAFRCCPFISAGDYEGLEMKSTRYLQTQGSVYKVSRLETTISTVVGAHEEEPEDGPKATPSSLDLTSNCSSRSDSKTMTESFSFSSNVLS

As for `CC(C)(C)OC(=O)N1CCC(C(=O)N2CCC(N3CCN([C@H]4CCN(C(=O)c5cc(C(F)(F)F)cc(C(F)(F)F)c5)[C@H](Cc5ccccc5)C4)CC3)C2)C1` (stereo partly drawn) [Compound 228], the IC50 is 25.1 nM on NK1 and 6310 nM at NK3.
The like results for `O=C(c1cc(C(F)(F)F)cc(C(F)(F)F)c1)N1CCC(N2CCN(C3CCN(Cc4ccccc4)C3)CC2)CC1Cc1ccc(F)c(F)c1` (single isomer, unassigned) [Compound 222] were, in that order, 50.1 nM and 6310 nM.
As for `O=C1CC[C@@H](C(=O)N2CCC(N3CCN([C@H]4CCN(C(=O)c5cc(C(F)(F)F)cc(C(F)(F)F)c5)[C@H](Cc5ccccc5)C4)CC3)C2)O1` (stereo partly drawn) [Compound 386], the values for the IC50 at NK1 and on NK3 were 20 nM and 5010 nM, respectively.
Taken in the same sequence, the figures for `Cc1nnsc1C(=O)N1CCC(N2CCN(C3CCN(C(=O)c4cc(C(F)(F)F)cc(C(F)(F)F)c4)C(Cc4ccc(F)c(F)c4)C3)CC2)C1` (single isomer, unassigned) [Compound 236] were 3.98 nM and 5010 nM.
The like results for `O=C(c1snnc1-c1ccccc1)N1CCC(N2CCN([C@H]3CCN(C(=O)c4cc(C(F)(F)F)cc(C(F)(F)F)c4)[C@H](Cc4ccccc4)C3)CC2)C1` (stereo partly drawn) [Compound 53] were, in that order, 39.8 nM and 3160 nM.
Taken in the same sequence, the figures for `CC(C)(C)CC(=O)N1CCC(N2CCN([C@H]3CCN(C(=O)c4cc(C(F)(F)F)cc(C(F)(F)F)c4)[C@H](Cc4ccccc4)C3)CC2)C1` (stereo partly drawn) [Compound 200] were 7.94 nM and 398 nM.
For the compound `O=C(c1csnn1)N1CCC(N2CCN([C@H]3CCN(C(=O)c4cc(C(F)(F)F)cc(C(F)(F)F)c4)[C@H](Cc4ccccc4)C3)CC2)C1` (stereo partly drawn) [Compound 52], the IC50 on NK1 is 31.6 nM; on NK3 it was 631 nM.
The like results for `CC1(C)OC(=O)[C@@H](CC(=O)N2CCC(N3CCN([C@H]4CCN(C(=O)c5cc(C(F)(F)F)cc(C(F)(F)F)c5)[C@H](Cc5ccccc5)C4)CC3)C2)O1` (stereo partly drawn) [Compound 392] were, in that order, 251 nM and 7940 nM.
The like results for `O=C(c1ccccc1Cl)N1CCC(N2CCN([C@@H]3CCN(C(=O)c4cc(C(F)(F)F)cc(C(F)(F)F)c4)[C@H](Cc4ccc(Cl)c(Cl)c4)C3)CC2)C1` (relative stereo) [Compound 141] were, in that order, 126 nM and 3160 nM.
Turning to `Cc1occc1C(=O)N1CCC(N2CCN([C@H]3CCN(C(=O)c4cc(C(F)(F)F)cc(C(F)(F)F)c4)[C@H](Cc4ccccc4)C3)CC2)C1` (stereo partly drawn) [Compound 36], the IC50 at NK1 is 25.1 nM; at NK3 it was 200 nM.
The like results for `N#Cc1ccccc1C(=O)N1CCC(N2CCN(C3CCN(C(=O)c4cc(C(F)(F)F)cc(C(F)(F)F)c4)C(Cc4ccccc4)C3)CC2)C1` (stereo not drawn) [Compound 195] were, in that order, 12.6 nM and 398 nM.
On to `COc1cccc(OC)c1C(=O)N1CCC(N2CCN([C@H]3CCN(C(=O)c4cc(C(F)(F)F)cc(C(F)(F)F)c4)[C@H](Cc4ccccc4)C3)CC2)C1` (stereo partly drawn) [Compound 18], for which the IC50 on NK1 is 25.1 nM; on NK3, 2510 nM.
The like results for `CC(=O)N1CCC(N2CCN([C@H]3CCN(C(=O)c4cc(C(F)(F)F)cc(C(F)(F)F)c4)[C@H](Cc4ccccc4)C3)CC2)C1` (stereo partly drawn) [Compound 198] were, in that order, 31.6 nM and 2510 nM.
Turning to `O=C(C1CC1)N1CCC(N2CCN(C3CCN(C(=O)c4cc(C(F)(F)F)cc(C(F)(F)F)c4)C(Cc4ccc(F)c(F)c4)C3)CC2)C1` (single isomer, unassigned) [Compound 231], the IC50 on NK1 was 6.31 nM; on NK3, 3160 nM.
`Cc1cc(C(=O)N2CCC(N3CCN([C@H]4CCN(C(=O)c5cc(C(F)(F)F)cc(C(F)(F)F)c5)[C@H](Cc5ccccc5)C4)CC3)C2)c(C)o1` (stereo partly drawn) [Compound 37]: the IC50 on NK1 is 39.8 nM; at NK3 it was 2000 nM.
For `CC1(C)OCC(CNC(=C[N+](=O)[O-])N2CCC(N3CCN([C@H]4CCN(C(=O)c5cc(C(F)(F)F)cc(C(F)(F)F)c5)[C@H](Cc5ccccc5)C4)CC3)C2)O1` (stereo partly drawn) [Compound 376], the IC50 at NK1 was 25.1 nM; at NK3, 3980 nM.
Turning to `O=C(C1CCc2cc(F)ccc2O1)N1CCC(N2CCN([C@H]3CCN(C(=O)c4cc(C(F)(F)F)cc(C(F)(F)F)c4)[C@H](Cc4ccccc4)C3)CC2)C1` (stereo partly drawn) [Compound 61], the values for the IC50 at NK1 and on NK3 were 31.6 nM and 6310 nM, respectively.
As for `O=C(c1cccnc1Cl)N1CCC(N2CCN([C@H]3CCN(C(=O)c4cc(C(F)(F)F)cc(C(F)(F)F)c4)[C@H](Cc4ccccc4)C3)CC2)C1` (stereo partly drawn) [Compound 168], the IC50 at NK1 was 7.94 nM; at NK3, 501 nM.
The like results for `N#Cc1cccc(C(=O)N2CCC(N3CCN(C4CCN(C(=O)c5cc(C(F)(F)F)cc(C(F)(F)F)c5)C(Cc5ccccc5)C4)CC3)C2)c1` (single isomer, unassigned) [Compound 193] were, in that order, 7.94 nM and 501 nM.
For `O=C(c1cc(C(F)(F)F)cc(C(F)(F)F)c1)N1CC[C@@H](N2CCN(C3CCN(S(=O)(=O)c4cccs4)C3)CC2)C[C@H]1Cc1ccc(Cl)c(Cl)c1` (relative stereo) [Compound 142], the IC50 was 126 nM on NK1 and 794 nM at NK3.
Regarding `Cc1cc(C(=O)N2CCC(N3CCN([C@H]4CCN(C(=O)c5cc(C(F)(F)F)cc(C(F)(F)F)c5)[C@H](Cc5ccccc5)C4)CC3)C2)no1` (stereo partly drawn) [Compound 47], the IC50 is 39.8 nM on NK1 and 3980 nM at NK3.
Consider `O=C(c1cc(C(F)(F)F)cc(C(F)(F)F)c1)N1CCC(N2CCN(C3CCN(Cc4ccccc4)C3)CC2)CC1Cc1ccc(F)c(F)c1` (single isomer, unassigned) [Compound 223], for which the IC50 at NK1 is 158 nM; on NK3, 1580 nM.
The like results for `Cc1nccn1C(C(=O)N1CCC(N2CCN(C3CCN(C(=O)c4cc(C(F)(F)F)cc(C(F)(F)F)c4)C(Cc4ccccc4)C3)CC2)C1)c1ccccc1` (stereo not drawn) [Compound 110] were, in that order, 20 nM and 5010 nM.
Regarding `O=C(C1CCCO1)N1CCC(N2CCN([C@H]3CCN(C(=O)c4cc(C(F)(F)F)cc(C(F)(F)F)c4)[C@H](Cc4ccccc4)C3)CC2)C1` (stereo partly drawn) [Compound 97], the IC50 was 10 nM at NK1 and 2510 nM at NK3.
Taken in the same sequence, the figures for `O=C(c1cnc2ccccc2n1)N1CCC(N2CCN([C@H]3CCN(C(=O)c4cc(C(F)(F)F)cc(C(F)(F)F)c4)[C@H](Cc4ccccc4)C3)CC2)C1` (stereo partly drawn) [Compound 60] were 31.6 nM and 2510 nM.
The like results for `CN(C)C(=O)N1CCC(N2CCN([C@H]3CCN(C(=O)c4cc(C(F)(F)F)cc(C(F)(F)F)c4)[C@H](Cc4ccccc4)C3)CC2)C1` (stereo partly drawn) [Compound 145] were, in that order, 12.6 nM and 2000 nM.
Turning to `O=C(c1ccccc1Cl)N1CCC(N2CCN(C3CCN(C(=O)c4cc(C(F)(F)F)cc(C(F)(F)F)c4)C(Cc4ccccc4)C3)CC2)C1` (single isomer, unassigned) [Compound 160], the IC50 is 10 nM at NK1 and 398 nM on NK3.
Taken in the same sequence, the figures for `O=C(c1ccno1)N1CCC(N2CCN([C@H]3CCN(C(=O)c4cc(C(F)(F)F)cc(C(F)(F)F)c4)[C@H](Cc4ccccc4)C3)CC2)C1` (stereo partly drawn) [Compound 68] were 31.6 nM and 1580 nM.
Taken in the same sequence, the figures for `Cn1c(N2CCC(N3CCN([C@H]4CCN(C(=O)c5cc(C(F)(F)F)cc(C(F)(F)F)c5)[C@H](Cc5ccccc5)C4)CC3)C2)nc2ccccc21` (stereo partly drawn) [Compound 8] were 100 nM and 3980 nM.
The like results for `O=C(C(=O)N1CCC(N2CCN(C3CCN(C(=O)c4cc(C(F)(F)F)cc(C(F)(F)F)c4)C(Cc4ccccc4)C3)CC2)C1)c1ccco1` (single isomer, unassigned) [Compound 191] were, in that order, 15.8 nM and 2510 nM.
Turning to `Cn1c(C(=O)N2CCC(N3CCN([C@H]4CCN(C(=O)c5cc(C(F)(F)F)cc(C(F)(F)F)c5)[C@H](Cc5ccccc5)C4)CC3)C2)cc2ccccc21` (stereo partly drawn) [Compound 57], the IC50 was 126 nM on NK1 and 3160 nM at NK3.
On to `O=C(C1CCOC1)N1CCC(N2CCN(C3CCN(C(=O)c4cc(C(F)(F)F)cc(C(F)(F)F)c4)C(Cc4ccc(F)cc4)C3)CC2)C1` (stereo not drawn) [Compound 274], for which the values for the IC50 on NK1 and at NK3 were 10 nM and 3980 nM, respectively.
The like results for `O=C(Cn1cnc2ccccc21)N1CCC(N2CCN([C@H]3CCN(C(=O)c4cc(C(F)(F)F)cc(C(F)(F)F)c4)[C@H](Cc4ccccc4)C3)CC2)C1` (stereo partly drawn) [Compound 208] were, in that order, 15.8 nM and 2510 nM.

These data come from patent US7795261B2, “Substituted 1-piperidin-4-yl-4-pyrrolidin-3-yl-piperazine derivatives and their use as neurokinin antagonists” (Janssen Pharmaceutica NV, priority 2002, dated 2010).
